# BindingDB's records for doi:10.1021/jm00381a005 (1985)
# pIC50: −log10 of the molar value.
# Assay: Inhibitory activity against thromboxane B2 formation (TXA2 synthase) by incubating prostaglandin H2 (PGH-2) with horse platelet microsomes
row,Compound,pIC50
1,"CC(C)(CCC/C=C(/c1ccccc1)c1cccnc1)C(=O)O [2,2-Dimethyl-7-phenyl-7-pyridin-3-yl-hept-6-enoic acid]",7.52
2,"CC(C)(CCC/C=C(\c1ccccc1)c1cccnc1)C(=O)O [2,2-Dimethyl-7-phenyl-7-pyridin-3-yl-hept-6-enoic acid]",7.68
3,"CC(C)(CCCC/C=C(/c1ccccc1)c1cccnc1)C(=O)O [2,2-Dimethyl-8-phenyl-8-pyridin-3-yl-oct-7-enoic acid]",7.42
4,"CC(C)(CCCC/C=C(\c1ccccc1)c1cccnc1)C(=O)O [2,2-Dimethyl-8-phenyl-8-pyridin-3-yl-oct-7-enoic acid]",7.35
5,CC(C)(O)C(CCC/C=C(\c1ccccc1)c1cccnc1)C(=O)O (configuration not stated) [2-(1-Hydroxy-1-methyl-ethyl)-7-phenyl-7-pyridin-3-yl-hept-6-enoic acid],7.38
6,O=C(O)C(CCC/C=C(\c1ccccc1)c1cccnc1)C1(O)CCCC1 (configuration not stated) [2-(1-Hydroxy-cyclopentyl)-7-phenyl-7-pyridin-3-yl-hept-6-enoic acid],7.19
7,C=CCC(CCC/C=C(\c1ccccc1)c1cccnc1)C(=O)O (configuration not stated) [2-Allyl-7-phenyl-7-pyridin-3-yl-hept-6-enoic acid],7.30
8,O=C(O)C(CCC/C=C(\c1ccccc1)c1cccnc1)C1=CCCC1 (configuration not stated) [2-Cyclopent-1-enyl-7-phenyl-7-pyridin-3-yl-hept-6-enoic acid],7.22
9,CC(C)CSC(CCC/C=C(\c1ccccc1)c1cccnc1)C(=O)O (configuration not stated) [2-Isobutylsulfanyl-7-phenyl-7-pyridin-3-yl-hept-6-enoic acid],6.96
10,C=C(C)C(CCC/C=C(\c1ccccc1)c1cccnc1)C(=O)O (configuration not stated) [2-Isopropenyl-7-phenyl-7-pyridin-3-yl-hept-6-enoic acid],7.55
11,COCC(CCC/C=C(\c1ccccc1)c1cccnc1)C(=O)O (configuration not stated) [2-Methoxymethyl-7-phenyl-7-pyridin-3-yl-hept-6-enoic acid],7.39
12,CSC(CCC/C=C(\c1ccccc1)c1cccnc1)C(=O)O (configuration not stated) [2-Methylsulfanyl-7-phenyl-7-pyridin-3-yl-hept-6-enoic acid],7.52
13,O=C(O)C(CCC/C=C(/c1cccnc1)c1cccs1)c1ccccc1 (configuration not stated) [2-Phenyl-7-pyridin-3-yl-7-thiophen-2-yl-hept-6-enoic acid],7.30
14,O=C(O)C(CCC/C=C(\c1cccnc1)c1cccs1)c1ccccc1 (configuration not stated) [2-Phenyl-7-pyridin-3-yl-7-thiophen-2-yl-hept-6-enoic acid],7.49
15,O=C(O)CCC/C=C(/c1ccccc1)c1cccnc1 [6-Phenyl-6-pyridin-3-yl-hex-5-enoic acid],6.55
16,O=C(O)CCC/C=C(\c1ccccc1)c1cccnc1 [6-Phenyl-6-pyridin-3-yl-hex-5-enoic acid],7.52
17,O=C(O)CCCC/C=C(\c1ccccc1)c1ccc[n+]([O-])c1 [7-(1-Oxy-pyridin-3-yl)-7-phenyl-hept-6-enoic acid],< 5.00
18,O=C(O)CCCC/C=C(\c1cccnc1)c1ccccc1Br [7-(2-Bromo-phenyl)-7-pyridin-3-yl-hept-6-enoic acid],6.89
19,O=C(O)CCCC/C=C(\c1cccnc1)c1cccc(Br)c1 [7-(3-Bromo-phenyl)-7-pyridin-3-yl-hept-6-enoic acid],6.74
20,O=C(O)CCCC/C=C(\c1cccnc1)c1cccc(F)c1 [7-(3-Fluoro-phenyl)-7-pyridin-3-yl-hept-6-enoic acid],7.26
21,Cc1ccsc1/C(=C/CCCCC(=O)O)c1cccnc1 [7-(3-Methyl-thiophen-2-yl)-7-pyridin-3-yl-hept-6-enoic acid],7.54

row,Compound,pIC50
1,O=C(O)CCCC/C=C(\c1cccnc1)c1cccc([N+](=O)[O-])c1 [7-(3-Nitro-phenyl)-7-pyridin-3-yl-hept-6-enoic acid],7.14
2,O=C(O)CCCC/C=C(/c1ccc(Br)cc1)c1cccnc1 [7-(4-Bromo-phenyl)-7-pyridin-3-yl-hept-6-enoic acid],7.09
3,O=C(O)CCCC/C=C(/c1ccc(F)cc1)c1cccnc1 [7-(4-Fluoro-phenyl)-7-pyridin-3-yl-hept-6-enoic acid],7.08
4,COc1ccc(/C(=C/CCCCC(=O)O)c2cccnc2)cc1 [7-(4-Methoxy-phenyl)-7-pyridin-3-yl-hept-6-enoic acid],7.10
5,O=C(O)C(CCC/C=C(\c1ccccc1)c1cccnc1)Sc1ccccc1 (configuration not stated) [7-Phenyl-2-phenylsulfanyl-7-pyridin-3-yl-hept-6-enoic acid],7.48
6,O=C(O)CCCC/C=C(/c1ccccc1)c1ccccn1 [7-Phenyl-7-pyridin-2-yl-hept-6-enoic acid],< 4.00
7,NC(=O)CCCC/C=C(\c1ccccc1)c1cccnc1 [7-Phenyl-7-pyridin-3-yl-hept-6-enoic acid amide],6.40
8,CCOC(=O)CCCC/C=C(\c1ccccc1)c1cccnc1 [7-Phenyl-7-pyridin-3-yl-hept-6-enoic acid ethyl ester],6.22
9,COC(=O)CCCC/C=C(\c1ccccc1)c1cccnc1 [7-Phenyl-7-pyridin-3-yl-hept-6-enoic acid methyl ester],7.00
10,O=C(O)CCCCCC(c1ccccc1)c1cccnc1 (configuration not stated) [7-Phenyl-7-pyridin-3-yl-heptanoic acid],5.57
11,Cc1ccc(/C(=C/CCCCC(=O)O)c2cccnc2)cc1 [7-Pyridin-3-yl-7-p-tolyl-hept-6-enoic acid],7.07
12,O=C(O)CCCC/C=C(\c1cccnc1)c1cccs1 [7-Pyridin-3-yl-7-thiophen-2-yl-hept-6-enoic acid],7.70
13,O=C(O)CCCC/C=C(\c1cccnc1)c1ccsc1 [7-Pyridin-3-yl-7-thiophen-3-yl-hept-6-enoic acid],7.51
14,O=C(O)CCCC/C=C\c1cccnc1 [7-Pyridin-3-yl-hept-6-enoic acid],6.60
15,C/C(=C/CCCCC(=O)O)c1cccnc1 [7-Pyridin-3-yl-oct-6-enoic acid],7.15
16,O=C(O)CCCC/C=C(/CCCc1ccccc1)c1cccnc1 [10-Phenyl-7-pyridin-3-yl-dec-6-enoic acid],7.19
17,O=C(O)CCCCCCCCC/C=C(/c1ccccc1)c1cccnc1 [12-Phenyl-12-pyridin-3-yl-dodec-11-enoic acid],6.28
18,O=C(O)CCCCCCCCC/C=C(\c1ccccc1)c1cccnc1 [12-Phenyl-12-pyridin-3-yl-dodec-11-enoic acid],7.26
19,O=C(O)CCCC/C=C(/c1cccnc1)c1cccs1 [(Z)-7-Pyridin-3-yl-7-thiophen-2-yl-hept-6-enoic acid],7.27
20,O=C(O)CCCC/C=C(/c1cccnc1)c1ccsc1 [(Z)-7-Pyridin-3-yl-7-thiophen-3-yl-hept-6-enoic acid],7.21
21,C/C(=C\CCCCC(=O)O)c1cccnc1 [(Z)-7-Pyridin-3-yl-oct-6-enoic acid],6.68
